Measurements as given in patent publication US20240115705A1, “Regulation of Butyrophilin subfamily 3 member A1 (BTN3A1, CD277)” (The J. Gladstone Institutes, a testamentary trust …, priority 2021, published 2024).
Blank lines part the entries; values can stand above or below the compound they belong to.

Legend:
[1] = system: BTN3A1; test: BTN3A expression genome-wide CRISPR knockout screen (FACS sort of surface BTN3A high/low cells); assay type: cell-based, human
[2] = target: BTN2A1-BTN3A1-BTN3A2 cell surface complex on Daudi-Cas9 cells (human; Homo sapiens) (UniProt Q7KYR7); test: flow cytometry, PE-TCR tetramer (160 nM) staining of WT Daudi-Cas9 cells treated 72 h with 80 µM Compound 991 against DMSO
[3] = target: BTN2A1-BTN3A1-BTN3A2 cell surface complex on Daudi-Cas9 cells (human; Homo sapiens) (UniProt Q7KYR7); test: flow cytometry, PE-TCR tetramer (160 nM) staining of WT Daudi-Cas9 cells treated 72 h with 0.5 mM AICAR against untreated cells
[4] = system: BTN3A; test: Inhibitor dose response, surface BTN3A by flow cytometry in WT Daudi-Cas9 cells; assay type: cell-based, human; conditions: 72 hours, complete RPMI, vs vehicle
Protocol: Daudi-Cas9 cells (180 μL) were seeded at 275,000 cells/mL in cRPMI in round-bottom 96-well plates. Twenty μL of zoledronate, rotenone (MedChemExpress), oligomycin A (Neta Scientific), FCCP (MedChemExpress), antimycin A (Neta Scientific), AICAR (Sigma), 2-DG (Sigma), Compound 991 (Selleck Chemical), A-769662 (Sigma), ethanol (vehicle), or DMSO (vehicle, at dilutions matching the treatment) at various concentrations were added to the cells. Plate edge wells were filled with 200 μL of sterile water or PBS. The cells were grown at 37° C. for 72 hours, and stained with APC-conjugated anti-human CD277 antibody (clone BT3.1, 1:50 dilution)(Miltenyi Biotec) and 7-AAD (1:150 dilution) (Tonbo). The cells were then analyzed on the Attune NxT flow cytometer.

[5] = system: BTN3A; test: mTOR/ISR compound treatment, surface BTN3A by flow cytometry in AAVS1 and PPAT KO Daudi-Cas9 cells; assay type: cell-based, human; conditions: control KO (AAVS1) and purine biosynthesis KO (PPAT) Daudi-Cas9 cells, 10 μM, 72 hours
Protocol: Daudi-Cas9 AAVS1 and PPAT KO cells (190 μL) were seeded at 250,000 cells/mL in round-bottom 96-well plates. Cells received 10 μL of DMSO (vehicle) or one of the following compounds at a final concentration of 10 μM: sephin1 (APE×BIO), ISRIB (MedChemExpress), guanabenz acetate (MedChemExpress), Sal003 (MedChemExpress), salubrinal (MedChemExpress), raphin1 acetate (MedChemExpress), and rapamycin (MilliporeSigma). Edge wells were filled with 200 μL of sterile PBS or water. After being cultured for 72 hours, the cells were stained with APC-conjugated anti-human CD277 antibody (clone BT3.1, 1:50 dilution) (Miltenyi Biotec) and 7-AAD (1:150 dilution) (Tonbo), and analyzed on the Attune NxT flow cytometer.

[6] = system: BTN3A; test: Compound C dose response in combination with AICAR or OXPHOS inhibition, surface BTN3A; assay type: cell-based, human; parameters: BTN3A levels vs vehicle control: dose or concentration left out as unconfirmed
Protocol: Daudi-Cas9 cells (170 μL) were seeded at 292,000 cells/mL in cRPMI in round-bottom 96-well plates. Ten μL of Compound C (Abcam) were added to all the cells at various concentrations. At indicated concentrations, 20 μL of rotenone, oligomycin A, FCCP, 2-DG, AICAR, or cRPMI (control) were added to the wells that received Compound C. Ten μL of DMSO at dilutions matching Compound C and 20 μL of cRPMI were added to the DMSO-only vehicle control wells. Plate edge wells were filled with 200 μL of sterile water or PBS. The cells were grown at 37° C. for 72 hours, stained with APC-conjugated anti-human CD277 antibody (clone BT3.1, 1:50 dilution) (Miltenyi Biotec) and 7-AAD (1:150 dilution) (Tonbo), and analyzed on the Attune NxT flow cytometer.

[7] = system: Daudi-Cas9 cells; test: γδ TCR tetramer staining (G115 Vγ9Vδ2 TCR clone) of Daudi-Cas9 cells; assay type: cell-based, human; conditions: WT Daudi-Cas9 cells, 0.5 mM, 72 hours
Description: The G115 Vγ9Vδ2 TCR clone tetramer was generated using the following methods. The G115 γ-[…] chain sequence (Davodeau et al. J. Immunol. 151, 1214-1223 (1993)) was cloned into the pAcGP67A vector with a C-terminal acidic zipper, and the G115 δ-chain sequence (Davodeau et al. (1993)) as cloned into the pAcGP67A vector with a C-terminal AviTag followed by a basic zipper. Zippers stabilized the TCR complex. The TCR was expressed in the High Five baculovirus insect-cell expression system and purified via affinity chromatography over a Ni-NTA column. TCRs were biotinylated and biotinylation was confirmed using a TrapAvidin SDS-PAGE assay. The G115 TCR was then further purified using size-exclusion chromatography (Superdex200 100/300 GL column, GE Healthcare) and purity was confirmed via SDS-PAGE. Tetramers were generated by incubating biotinylated TCR with streptavidin conjugated to the PE fluorophore.
Daudi-Cas9 KO cells were analyzed 13 and 14 days post-lentiviral transduction. WT Daudi-Cas9 cells were analyzed after being cultured for 72 hours with 0.5 mM AICAR, 80 μM Compound 991, DMSO (vehicle control at the concentration matching Compound 991), or nothing. […] Stained cells were analyzed on the Attune NxT flow cytometer.

[8] = system: Daudi-Cas9 cells; test: Cancer-T cell co-culture genome-wide CRISPR knockout screen (Vγ9Vδ2 T cell killing); assay type: cell-based, human; conditions: for score: MAGeCK sgRNA test, co-culture screen; for LFC: log-fold change of sgRNA, surviving cells after co-culture vs baseline; for LFC / treat mean: MAGeCK; for treat mean: sgRNA abundance in surviving Daudi-Cas9 KO cells after 24 hours Vγ9Vδ2 T cell co-culture with zoledronate; for high_in_treatment: sgRNA enriched (TRUE) or depleted (FALSE) after T cell co-culture

Chain of UniProt Q7KYR7 (Q7KYR7 29-527, chain 1 of 3): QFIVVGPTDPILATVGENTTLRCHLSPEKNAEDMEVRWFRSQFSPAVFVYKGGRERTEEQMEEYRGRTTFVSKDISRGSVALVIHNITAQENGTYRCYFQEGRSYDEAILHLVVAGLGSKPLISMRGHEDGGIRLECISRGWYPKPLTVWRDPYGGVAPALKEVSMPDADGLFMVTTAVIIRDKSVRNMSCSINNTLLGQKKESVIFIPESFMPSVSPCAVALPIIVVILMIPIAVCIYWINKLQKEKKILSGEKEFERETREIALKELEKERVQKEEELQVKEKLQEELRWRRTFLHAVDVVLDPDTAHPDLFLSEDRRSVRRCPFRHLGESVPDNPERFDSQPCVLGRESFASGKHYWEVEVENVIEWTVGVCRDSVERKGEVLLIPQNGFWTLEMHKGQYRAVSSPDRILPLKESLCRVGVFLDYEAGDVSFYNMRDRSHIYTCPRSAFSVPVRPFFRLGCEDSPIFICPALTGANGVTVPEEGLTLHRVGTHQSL
Chain of UniProt Q7KYR7 (chain, as listed by the source, chain 2 of 3): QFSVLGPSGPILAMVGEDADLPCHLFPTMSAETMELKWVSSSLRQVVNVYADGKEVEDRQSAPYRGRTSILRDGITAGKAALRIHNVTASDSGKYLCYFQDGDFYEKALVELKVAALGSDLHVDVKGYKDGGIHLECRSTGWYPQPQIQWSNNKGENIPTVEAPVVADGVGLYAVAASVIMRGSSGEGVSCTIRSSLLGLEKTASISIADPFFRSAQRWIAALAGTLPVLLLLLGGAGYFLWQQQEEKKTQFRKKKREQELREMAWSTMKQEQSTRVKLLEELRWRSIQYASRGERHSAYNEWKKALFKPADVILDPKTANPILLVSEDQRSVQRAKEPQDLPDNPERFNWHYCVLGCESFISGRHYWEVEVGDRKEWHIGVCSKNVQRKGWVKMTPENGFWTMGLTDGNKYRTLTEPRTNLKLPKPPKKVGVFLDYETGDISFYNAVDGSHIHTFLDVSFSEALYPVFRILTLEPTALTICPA
Chain of UniProt Q7KYR7 (chain, as listed by the source, chain 3 of 3): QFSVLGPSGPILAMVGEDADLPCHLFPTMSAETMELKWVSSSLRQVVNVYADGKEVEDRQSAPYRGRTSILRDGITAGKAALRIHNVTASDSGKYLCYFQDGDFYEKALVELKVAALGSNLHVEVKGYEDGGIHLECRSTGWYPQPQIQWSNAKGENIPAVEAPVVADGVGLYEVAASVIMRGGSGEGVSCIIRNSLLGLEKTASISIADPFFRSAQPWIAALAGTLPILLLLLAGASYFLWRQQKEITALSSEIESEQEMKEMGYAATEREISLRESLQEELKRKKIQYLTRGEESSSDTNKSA

Compound: COQ2
Log2 Fold Change ([1]; Table 2, positive regulators of BTN3A1, gene knockout in Daudi-Cas9 cells, FACS sort on surface BTN3A1 (anti-BTN3A1 clone BT3.1), three replicates): 1.1343

fold tetramer staining against vehicle control-treated cells [2]: 5 fold | percent increase of tetramer staining [3]: 40 to 80%
Compound: PE-conjugated Vγ9Vδ2 TCR (clone G115) tetramer (from UniProt P22629 37-163)

Compound: CC[C@H]1/C=C/C=C/C[C@@H](C)[C@H](O)[C@@](C)(O)C(=O)[C@@H](C)[C@H](O)[C@@H](C)C(=O)[C@@H](C)[C@H](O)[C@@H](C)/C=C/C(=O)O[C@@H]2[C@H](C)[C@H](CC1)O[C@]1(CC[C@H](C)[C@H](C[C@@H](C)O)O1)[C@H]2C [oligomycin A]
surface BTN3A (MFI) [4]: highest BTN3A upregulation

Compound: N#CC(C#N)=NNc1ccc(OC(F)(F)F)cc1 [FCCP, carbonyl cyanide-4 (trifluoromethoxy) phenylhydrazone]
surface BTN3A (MFI) [4]: highest BTN3A upregulation

Compound: N=C(N)N/N=C/c1c(Cl)cccc1Cl [guanabenz]
BTN3A surface expression [5]: negligible effects

Compound: O=C(/C=C/c1ccccc1)NC(NC(=S)Nc1ccc(Cl)cc1)C(Cl)(Cl)Cl (centres unmarked) [Sal003]
BTN3A surface expression [5]: downregulation

Compound: O=C(COc1ccc(Cl)cc1)NC1CCC(NC(=O)COc2ccc(Cl)cc2)CC1 (centres unmarked) [ISRIB]
BTN3A surface expression [5]: negligible effects

Compound: antimycin A
surface BTN3A (MFI) [4]: highest BTN3A upregulation

Compound: C=C(C)[C@H]1Cc2c(ccc3c2O[C@@H]2COc4cc(OC)c(OC)cc4[C@@H]2C3=O)O1 [rotenone]
surface BTN3A (MFI) [4]: BTN3A upregulation at two lower doses and a downregulation at one higher dose

Compound: c1cc(-c2cnn3cc(-c4ccc(OCCN5CCCCC5)cc4)cnc23)ccn1 [Compound C]
BTN3A upregulation caused by OXPHOS inhibition (rotenone, oligomycin, FCCP) or glycolysis inhibition (2-DG) ([6]; WT Daudi-Cas9 cells co-treated with Compound C, 72 hours): neutralized | AICAR-induced BTN3A upregulation ([6]; WT Daudi-Cas9 cells co-treated with increasing amounts of Compound C and AICAR, 72 hours): decreased the AICAR-induced BTN3A upregulation | BTN3A levels vs vehicle control ([6]; co-treated with AICAR, Compound C): falling well below those observed in the vehicle control

Compound: O=P(O)(O)C(O)(Cn1ccnc1)P(=O)(O)O [ZOL, zoledronate]
surface BTN3A (MFI) [4]: substantial and dose-dependent increase in BTN3A

Compound: NC(=O)c1ncn([C@@H]2O[C@H](CO)[C@@H](O)[C@H]2O)c1N [AICAR, N^1-(β-D-Ribofuranosyl)-5-aminoimidazole-4-carboxamide]
surface BTN3A (MFI) [4]: dramatic increase in surface BTN3A | increase in G115 Vγ9Vδ2 TCR tetramer staining [7]: 40-80%

Compound: O=CC[C@@H](O)[C@H](O)[C@H](O)CO [2-DG, 2-deoxy-D-glucose]
surface BTN3A (MFI) [4]: upregulated BTN3A levels

Compound: RPIA
Log2 Fold Change ([1]; gene knockout in Daudi cells expressing Cas9, genome wide CRISPR knockout screen sorted on surface BTN3A1, Table 1 Negative Regulators of BTN3A1): −1.4533

Compound: NC(N)=N/N=C/c1cccc(Cl)c1Cl [raphin1]
BTN3A surface expression [5]: negligible effects

Compound: N#Cc1c(O)c2c(-c3ccc(-c4ccccc4O)cc3)csc2[nH]c1=O [A-769662]
surface BTN3A (MFI) [4]: Upregulation of surface BTN3A

Compound: O=C(/C=C/c1ccccc1)NC(NC(=S)Nc1cccc2cccnc12)C(Cl)(Cl)Cl (centres unmarked) [salubrinal]
BTN3A surface expression [5]: negligible effects

Compound: HISTIH3J_CACGCAAGGCCACGGTGCC: library sgRNA targeting HIST-1H3J (listed as DNA, chemistry not fully specified)
score [8]: 6.0349 | LFC [8]: 1.0769 | treat mean [8]: 4138.5 | high_in_treatment [8]: TRUE

Compound: IRF9_TGTATCAGTTGCTGCCACC: library sgRNA targeting IRF9 (as printed in the source, key not given here)
score [8]: 7.0068 | LFC [8]: 1.2192 | treat mean [8]: 4293.9 | high_in_treatment [8]: TRUE
